Data taken from US11976062B2, “Benzisoxazole compound” (OSAKA UNIVERSITY, priority 2018, dated 2024).

Key:
[1] = test system: α-SMA expression induced by TGFβ2 in cardiac fibroblasts; test: Fibrosis inhibition evaluation 2: immunofluorescent staining of α-SMA in cardiac fibroblasts; format: cell-based, rats; settings: 10 μM, TGFβ2 2 ng/ml, 48 hours, FIG. 8
Description: (§1) In the same manner as in Test Example 5, dermal fibroblasts were isolated from mice, and sterilized cover glass (diameter: 12 mm) was placed in a 12-well plate. On the cover glass, 2.5×10^5 cells were seeded and grown. After 24 hours, the medium was replaced with a medium free of fetal bovine serum, and the cells were cultured for another 24 hours. Separately, cardiac fibroblasts were isolated from 1 to 2-day-old rats and treated in the same manner as for the dermal fibroblasts. Thereafter, 10 ng/ml TGFβ1 was added to the dermal fibroblasts, and 2 ng/ml TGFβ2 was added to the cardiac fibroblasts, followed by culturing the cells for 48 hours. At the same time as TGFβ was added, 10 μM of a test compound (compound 011), 10 μM of Pyr 2 (conventional inhibitor), or DMSO (solvent control) was also added. Separately, cultured cells to which TGFβ-free phosphate buffered saline (PBS) was added were also prepared. […] After blocking with 1% bovine serum albumin, α-SMA was detected using anti-α-SMA antibody (Sigma) as the primary antibody and anti-mouse IgG antibody (Molecular Probes) fused with Alexa 488 as the secondary antibody, and an image was acquired using a fluorescence microscope (Keyence) with a 20× objective lens. The average fluorescence brightness (fluorescence intensity/pixel) per cell area was calculated and analyzed using Image J software.

dermal fibroblasts = test: Fibrosis inhibition evaluation 1: cell morphology observation of dermal fibroblasts; format: cell-based, mice; settings: dermal fibroblasts cultured 48 hours with TGFβ1
[2] = test system: α-SMA expression induced by TGFβ1 in dermal fibroblasts; test: Fibrosis inhibition evaluation 2: immunofluorescent staining of α-SMA in dermal fibroblasts; format: cell-based, mice; settings: 10 μM, TGFβ1 10 ng/ml, 48 hours, FIG. 7
Description: as §1

[3] = test system: α-SMA expression induced by TGFβ1 in dermal fibroblasts; test: Fibrosis inhibition evaluation 1: western blotting of α-SMA in dermal fibroblasts; format: cell-based, mice; settings: compound 011 0.1, 1, 10 μM (especially 10 μM); Pyr 2 10 μM; TGFβ1 10 ng/ml, 48 hours
Description: The expression of α-smooth muscle actin (α-SMA) in fibroblasts was evaluated by western blotting. Dermal fibroblasts were isolated from 1 to 3-day-old mice, and 2.5×10^5 cells were seeded in a 12-well plate. After 24 hours, the medium was replaced with a medium free of fetal bovine serum, and the cells were cultured for another 24 hours. Thereafter, 10 ng/ml of transforming growth factor β1 (TGFβ1) was added, and the cells were cultured for 48 hours. At the same time as TGFβ1 was added, a test compound (compound 011) of a predetermined concentration (0.1 μM, 1 μM, 10 μM) and 10 μM of Pyr 2 or DMSO (solvent control) were also added. […] The cultured cells were dissolved in a lysis buffer (140 mM NaCl, 20 mM Tris-HCl pH 7.8, 1% Triton-X100, 0.05% sodium deoxycholate, 0.1% SDS, 2 mM EDTA, proteinase inhibitor cocktail), and separated by SDS-PAGE, followed by detecting α-SMA using anti-α-SMA antibody (Sigma) as the primary antibody and anti-mouse IgG antibody (cell signaling) fused with horse radish peroxidase as the secondary antibody.

[4] = test system: renal interstitial fibrosis caused by unilateral ureteral obstruction; settings: mice; cited from earlier work

SMILES: Cc1nnsc1C(=O)Nc1ccc(-n2nc(C(F)(F)F)cc2C(F)(F)F)cc1 [Pyr 2, reference compound]
- expression of α-SMA induced by TGFβ (immunofluorescent staining) [1]: almost completely suppressed the expression of α-SMA
- cell morphology / cell damage by microscopic observation (dermal fibroblasts): cell elongation
- expression of α-SMA induced by TGFβ (immunofluorescent staining) [2]: almost completely suppressed the expression of α-SMA
- expression of α-SMA induced by TGFβ1 (western blotting) [3]: lighter coloration of the α-SMA antibody compared with the control
- suppression of renal interstitial fibrosis caused by unilateral ureteral obstruction [4]: suppresses renal interstitial fibrosis caused by unilateral ureteral obstruction
